Consider 22 molecules from patent US8003695B2 (Chroma Therapeutics Ltd., priority 2006, dated 2011).

pIC50: −log10 of the molar value.

One assay addresses T1, IKBKB (IKKβ) (Homo sapiens, UniProt O14920).
T1 construct: purchased Invitrogen (Paisley, UK)
T1 sequence (O14920 1-756): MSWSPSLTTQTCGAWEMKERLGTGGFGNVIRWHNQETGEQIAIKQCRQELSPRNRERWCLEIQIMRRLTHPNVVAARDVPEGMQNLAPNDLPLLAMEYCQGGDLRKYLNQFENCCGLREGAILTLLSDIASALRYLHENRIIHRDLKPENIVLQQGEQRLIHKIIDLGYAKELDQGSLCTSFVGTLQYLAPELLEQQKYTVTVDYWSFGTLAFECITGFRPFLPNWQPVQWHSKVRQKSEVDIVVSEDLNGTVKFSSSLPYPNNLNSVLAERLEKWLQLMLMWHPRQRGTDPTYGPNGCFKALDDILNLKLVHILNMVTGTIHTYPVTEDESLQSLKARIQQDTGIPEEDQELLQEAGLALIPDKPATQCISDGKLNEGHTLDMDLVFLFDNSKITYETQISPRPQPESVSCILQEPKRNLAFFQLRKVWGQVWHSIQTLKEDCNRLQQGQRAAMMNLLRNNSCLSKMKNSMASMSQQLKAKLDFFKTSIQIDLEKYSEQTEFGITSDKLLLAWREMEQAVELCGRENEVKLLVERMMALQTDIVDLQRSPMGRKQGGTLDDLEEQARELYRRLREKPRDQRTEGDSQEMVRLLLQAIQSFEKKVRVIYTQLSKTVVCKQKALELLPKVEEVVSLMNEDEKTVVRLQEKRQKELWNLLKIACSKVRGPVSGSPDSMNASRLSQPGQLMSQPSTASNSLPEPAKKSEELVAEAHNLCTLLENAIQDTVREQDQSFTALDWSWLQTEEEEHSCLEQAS
Kind of assay: IKKβ Enzyme Assay (Z'-LYTE, Invitrogen). The class given is biochemical. The following applies: ATP at or close to Km; read-out: Inhibitor activity versus IKKβ. How it is done: The ability of compounds to inhibit IKKβ kinase activity was measured in an assay performed by Invitrogen (Paisley, UK). The Z′-LYTE™ biochemical assay employs a fluorescence-based, coupled-enzyme format and is based on the differential sensitivity of phosphorylated and non-phosphorylated peptides to proteolytic cleavage. The peptide substrate is labelled with two fluorophores—one at each end—that make up a FRET pair. In the primary reaction, the kinase transfers the gamma-phosphate of ATP to a single serine or threonine residue in a synthetic FRET-peptide. In the secondary reaction, a site-specific protease recognizes and cleaves non-phosphorylated FRET-peptides. Phosphorylation of FRET-peptides suppresses cleavage by the Development Reagent. Cleavage disrupts FRET between the donor (i.e., coumarin) and acceptor (i.e. fluorescein) fluorophores on the FRET-peptide, whereas uncleaved, phosphorylated FRET-peptides maintain FRET. A […] method, which calculates the ratio (the Emission Ratio) of donor emission to acceptor emission after excitation of the donor fluorophore at 400 nm, is used to quantitate reaction progress.
The final 10 μL Kinase Reaction consists of 0.9-8.0 ng IKBKB (IKKβ), 2 μM Ser/Thr 05 Peptide and ATP in 50 mM HEPES pH 7.5, 0.01% BRIJ-35, 10 mM MgCl2, 1 mM EGTA. The assay is performed at an ATP concentration at, or close to the Km. After the 60 minute Kinase Reaction incubation at room temperature, 5 μL of a 1:128 dilution of Development Reagent is added. The assay plate is incubated for a further 60 minutes at room temperature and read on a fluorescence plate reader.
Duplicate data points are generated from a ⅓ log dilution series of a stock solution of test compound in DMSO. Nine dilutions steps are made from a top concentration of 10 μM, and a ‘no compound’ blank is included. Data is collected and analysed using XLfit software from IDBS. The dose response curve is curve fitted to model number 205 (sigmoidal dose-response model). From the curve generated, the concentration giving 50% inhibition is determined and reported.

The next assay relates to THP-1 cells. Kind of assay: LPS-Stimulation of THP-1 Cells, TNF-α release. The class given is cell-based. Conditions: Homo sapiens, LPS 1 μg/ml, 6 hrs, read-out: Inhibitor activity versus THP-1 TNFα release. How it is done:
LPS-Stimulation of THP-1 Cells
THP-1 cells were plated in 100 μl at a density of 4×10^4 cells/well in V-bottomed 96 well tissue culture treated plates and incubated at 37° C. in 5% CO2 for 16 hrs. 2 hrs after the addition of the inhibitor in 100 μl of tissue culture media, the cells were stimulated with LPS (E. coli strain 005:85, Sigma) at a final concentration of 1 μg/ml and incubated at 37° C. in 5% CO2 for 6 hrs. TNF-α levels were measured from cell-free supernatants by sandwich ELISA (R&D Systems #QTA00B)

Turning to `NC(=O)Nc1sc(-c2ccc(CN[C@@H](Cc3ccccc3)C(=O)OC3CCCC3)cc2)cc1C(N)=O` [Example 3, Cyclopentyl N-{-4-[4-carbamoyl-5-(carbamoylamino)-2-thienyl]benzyl}-L-phenylalaninate], the pIC50 at IKBKB (IKKβ) and in the assay with THP-1 cells was less than 5.30 in each case.

Turning to `NC(=O)Nc1sc(-c2ccc(CN[C@H](C(=O)OC3CCCC3)c3ccc4ccccc4c3)cc2)cc1C(N)=O` [Example 5, Cyclopentyl (2S)-({4-[4-carbamoyl-5-(carbamoylamino)-2-thienyl]benzyl}amino)(2-naphthyl)acetate], the pIC50 at IKBKB (IKKβ) and in the assay on THP-1 cells was less than 5.30 each time.

For the molecule `CC(C)C[C@H](NCc1ccc(-c2cc(C(N)=O)c(NC(N)=O)s2)c(Cl)c1)C(=O)OC1CCCC1` [Example 6, Cyclopentyl N-{-4-[4-carbamoyl-5-(carbamoylamino)-2-thienyl]-3-chlorobenzyl}-L-leucinate], the pIC50 on IKBKB (IKKβ) was more than 6.00; with THP-1 cells, less than 5.30.

For `Cc1cc(-c2cc(C(N)=O)c(NC(N)=O)s2)ccc1CN[C@@H](CC(C)C)C(=O)OC1CCCC1` [Example 7, Cyclopentyl N-{-4-[4-carbamoyl-5-(carbamoylamino)-2-thienyl]-2-methylbenzyl}-L-leucinate], the pIC50 at IKBKB (IKKβ) is more than 6.00; with THP-1 cells it was 5.30 to 6.00.

On to `CC(C)C[C@H](NCCc1ccc(-c2cc(C(N)=O)c(NC(N)=O)s2)cc1)C(=O)OC1CCCC1` [Example 16, Cyclopentyl N-(2-{4-[4-carbamoyl-5-(carbamoylamino)-2-thienyl]phenyl}ethyl)-L-leucinate], for which the pIC50 on IKBKB (IKKβ) and in the assay on THP-1 cells was 5.30 to 6.00 each time.

On to `CC(C)C[C@H](NCCc1ccc(-c2cc(C(N)=O)c(NC(N)=O)s2)c(Cl)c1)C(=O)OC1CCCC1` [Example 17, Cyclopentyl N-(2-{4-[4-carbamoyl-5-(carbamoylamino)-2-thienyl]-3-chlorophenyl}ethyl)-L-leucinate], for which the pIC50 on IKBKB (IKKβ) was 5.30 to 6.00; with THP-1 cells, less than 5.30.

Take `CC(C)C[C@H](NCCCOc1ccc(-c2cc(C(N)=O)c(NC(N)=O)s2)cc1)C(=O)OC1CCCC1` [Example 25, Cyclopentyl N-(3-{4-[4-carbamoyl-5-(carbamoylamino)-2-thienyl]phenoxy}propyl)-L-leucinate]: the pIC50 on IKBKB (IKKβ) and with THP-1 cells was 5.30 to 6.00 in each case.

Consider `CC(C)C[C@H](NCCCOc1ccc(-c2cc(C(N)=O)c(NC(N)=O)s2)c(Cl)c1)C(=O)OC1CCCC1` [Example 26, Cyclopentyl N-(3-{4-[4-carbamoyl-5-(carbamoylamino)-2-thienyl]-3-chlorophenoxy}propyl)-L-leucinate], for which the pIC50 on IKBKB (IKKβ) and in the assay with THP-1 cells was 5.30 to 6.00 throughout.

For the molecule `CC(C)C[C@H](NCCCCCOc1ccc(-c2cc(C(N)=O)c(NC(N)=O)s2)cc1)C(=O)OC1CCCC1` [Example 27, Cyclopentyl N-(5-{4-[4-carbamoyl-5-(carbamoylamino)-2-thienyl]phenoxy}pentyl)-L-leucinate], the values for the pIC50 at IKBKB (IKKβ) and in the assay on THP-1 cells were more than 6.00 and 5.30 to 6.00, respectively.

Consider `CC(C)C[C@H](NCCCCCOc1ccc(-c2cc(C(N)=O)c(NC(N)=O)s2)c(Cl)c1)C(=O)OC1CCCC1` [Example 28, Cyclopentyl N-(5-{4-[4-carbamoyl-5-(carbamoylamino)-2-thienyl]-3-chlorophenoxy}pentyl)-L-leucinate], for which the pIC50 at IKBKB (IKKβ) is less than 5.30; in the assay on THP-1 cells it was 5.30 to 6.00.

In the case of `Cc1cc(-c2cc(C(N)=O)c(NC(N)=O)s2)ccc1/C=C/CN[C@@H](CC(C)C)C(=O)OC1CCCC1` [Example 30, Cyclopentyl N-[(2E)-3-{4-[4-carbamoyl-5-(carbamoylamino)thiophen-2-yl]-2-methylphenyl}prop-2-en-1-yl]-L-leucinate], the pIC50 at IKBKB (IKKβ) and in the assay with THP-1 cells was 5.30 to 6.00 throughout.

For the molecule `CC(C)C[C@H](NC/C=C/c1ccc(-c2cc(C(N)=O)c(NC(N)=O)s2)c(F)c1)C(=O)OC1CCCC1` [Example 34, Cyclopentyl N-[(2E)-3-{4-[4-carbamoyl-5-(carbamoylamino)thiophen-2-yl]-3-fluorophenyl}prop-2-en-1-yl]-L-leucinate], the pIC50 on IKBKB (IKKβ) is more than 6.00; in the assay with THP-1 cells, 5.30 to 6.00.

Turning to `CC(C)C[C@H](NC/C=C/c1c(F)cc(-c2cc(C(N)=O)c(NC(N)=O)s2)cc1F)C(=O)O` [Example 78, N-[(2E)-3-{4-[4-carbamoyl-5-(carbamoylamino)thiophen-2-yl]-2,6-difluorophenyl}prop-2-en-1-yl]-L-leucine], the pIC50 on IKBKB (IKKβ) was more than 6.00.

Regarding `CC(C)C[C@H](NC/C=C/c1ccc(-c2cc(C(N)=O)c(NC(N)=O)s2)c(C(F)(F)F)c1)C(=O)O` [Example 79, N-[(2E)-3-{4-[4-carbamoyl-5-(carbamoylamino)thiophen-2-yl]-3-(trifluoromethyl)phenyl}prop-2-en-1-yl]-L-leucine], the pIC50 on IKBKB (IKKβ) is 5.30 to 6.00.

With `Cc1cc(-c2cc(C(N)=O)c(NC(N)=O)s2)cc(C)c1/C=C/CN[C@@H](CC(C)C)C(=O)O` [Example 80], the pIC50 at IKBKB (IKKβ) is more than 6.00.

On to `NC(=O)Nc1sc(-c2ccc(/C=C/CN[C@H](C(=O)O)c3ccccc3)cc2)cc1C(N)=O` [Example 81, (2S)-{[(2E)-3-{4-[4-carbamoyl-5-(carbamoylamino)-2-thienyl]phenyl}prop-2-en-1-yl]amino}(phenyl)acetic acid], for which the pIC50 on IKBKB (IKKβ) was more than 6.00.

On to `CC(C)(C)OC[C@H](NC/C=C/c1ccc(-c2cc(C(N)=O)c(NC(N)=O)s2)cc1)C(=O)O` [Example 82, O-tert-butyl-N-[(2E)-3-{4-[4-carbamoyl-5-(carbamoylamino)thiophen-2-yl]phenyl}prop-2-en-1-yl]-L-serine], for which the pIC50 at IKBKB (IKKβ) was more than 6.00.

In the case of `NC(=O)Nc1sc(-c2ccc(/C=C/CN[C@H](C(=O)O)C3CCCCC3)cc2)cc1C(N)=O` [Example 83, (2S)-{[(2E)-3-{4-[4-carbamoyl-5-(carbamoylamino)thiophen-2-yl]phenyl}prop-2-en-1-yl]amino}(cyclohexyl)ethanoic acid], the pIC50 at IKBKB (IKKβ) was more than 6.00.

In the case of `CC(C)C[C@@H](NC/C=C/c1ccc(-c2cc(C(N)=O)c(NC(N)=O)s2)cc1)C(=O)O` [Example 84, N-[(2E)-3-{4-[4-carbamoyl-5-(carbamoylamino)-2-thienyl]phenyl}prop-2-en-1-yl]-D-leucine], the pIC50 on IKBKB (IKKβ) was more than 6.00.

With `CC(C)C[C@H](NCCc1cccc(-c2cc(C(N)=O)c(NC(N)=O)s2)c1)C(=O)O` [Example 87, N-(2-{3-[4-carbamoyl-5-(carbamoylamino)-2-thienyl]phenyl}ethyl)-L-leucine], the pIC50 at IKBKB (IKKβ) was more than 6.00.

In the case of `CC(C)C[C@H](NCCc1cc(-c2cc(C(N)=O)c(NC(N)=O)s2)ccc1F)C(=O)O` [Example 90, N-(2-{5-[4-carbamoyl-5-(carbamoylamino)thiophen-2-yl]-2-fluorophenyl}ethyl)-L-leucine], on IKBKB (IKKβ), the pIC50 was more than 6.00.

With `CC(C)C[C@H](NC/C=C/c1cccc(-c2cc(C(N)=O)c(NC(N)=O)s2)c1)C(=O)O` [Example 93, N-[(2E)-3-{3-[4-carbamoyl-5-(carbamoylamino)-2-thienyl]phenyl}prop-2-en-1-yl]-L-leucine], the pIC50 at IKBKB (IKKβ) was more than 6.00.
